According to US20240391877A1, “COMPOUND AS INHIBITOR OF COMPLEMENT FACTOR D, AND PHARMACEUTICAL COMPOSITION AND USE THEREOF” (WUHAN CREATERNA SCIENCE AND TECHNOLOGY CO.,LTD., priority 2021, published 2024):

Columns and labels:
complement factor D = target: T1, complement factor D (Homo sapiens, UniProt P00746); test: Complement factor D inhibitory activity (C3b method) in vitro screening; product Bb detected by ELISA; assay type: biochemical; settings: factor D + factor B + factor C3b, 37° C., Bb by MicroVue Bb Plus ELISA
T1 construct: purchased Complement tech
T1 sequence (P00746 26-253): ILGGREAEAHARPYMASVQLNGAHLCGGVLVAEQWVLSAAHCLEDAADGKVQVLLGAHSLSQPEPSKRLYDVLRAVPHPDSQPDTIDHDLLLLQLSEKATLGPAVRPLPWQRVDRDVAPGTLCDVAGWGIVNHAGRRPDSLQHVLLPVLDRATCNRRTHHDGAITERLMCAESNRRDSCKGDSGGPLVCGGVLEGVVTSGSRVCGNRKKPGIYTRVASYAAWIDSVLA
Text: 1. Complement Factor D Inhibitory Activity (C3b Method) In Vitro Screening Experiment
V-bottom plate (AXYGEN), DMSO (Sigma), MicroVue Bb Plus ELISA kit (Quidel), complement factor C3b (abbreviated as factor C3b, Complement tech), complement factor B (abbreviated as factor B, Complement tech), complement factor D (abbreviated as factor D, Complement tech), EDTA (MACKLIN), GVB^o (Complement tech), EGTA (Aladdin), MgCl2 (Aladdin), NaOH (Sinopharm), microplate reader (Molecular Devices, SpectraMax i3x), microplate thermostatic shaker (Thermo, MB100-2A), pipette (Gilson)
0.1 M Mg-EGTA: 3.8 g of EGTA, 0.9521 g of MgCl2, and 0.7 g of NaOH were weighed, and the pH was adjusted to 7.5 with NaOH. Distilled water was added to make up to 100 mL, and the mixture was filtered with a […] sterile needle filter, stored in portions at 4° C.
Buffer: 0.1 M Mg-EGTA solution was diluted 10-fold to 10 mM with GVB^o buffer; • factor B working solution: 1 mg/mL factor B solution (10.75 μM) was diluted 6.7-fold to 1.6 μM with buffer; • factor C3b working solution: 1 mg/mL factor C3b solution (5.68 μM) was diluted 5-fold to […] with buffer; • factor D working solution: 0.1 mg/mL factor D solution (4.17 μM) was diluted 1303-fold to 3.2 nM with buffer.
Note: a. The above dilution multiples are for reference only and are adjusted according to the true concentration labeled on the reagent; • b. factor B: 93 KDa, factor D: 24 KDa, factor C3b: 176 KDa.
Stop solution: An appropriate amount of EDTA powder was weighed, dissolved in a certain amount of GVB^o buffer, and the pH was adjusted to 7.5 with NaOH. The mixture was stirred until clear and prepared into a 10 mM solution.
Compound stock solution: 40 mM compound solution was diluted with DMSO into 1 mM stock solution, and the 1 mM stock solution was diluted 3-fold with DMSO at 8 points to prepare compound stock solutions of various concentrations.
Compound working solution: diluted 250-fold with buffer to obtain compound solutions of various concentrations.
In the V-bottom plate, the experimental group was added with 10 μL of factor D solution and 10 μL of compound solution; the positive control group was added with 10 μL of factor D solution and buffer containing 0.4% DMSO; the blank control group was added with […] containing 0.2% DMSO; incubated at 37° C. for 15 min; the factor B working solution and the factor C3b working solution were mixed homogeneously at a ratio of 1:1; 20 µL of the mixture was added to each well and incubated at 37° C. for 30 min; the reaction was stopped by adding 40 μL of stop solution; the production of product Bb was detected by MicroVue Bb Plus ELISA kit.
1.4.1 The required wells of the ELISA plate were taken out and allowed to return to room temperature, and the remaining ones were repackaged and stored at 4° C.;
1.4.2 the wells were washed twice with 300 μL of 1× wash buffer, and incubated for 1 min at 25° C. for the first wash;
1.4.3 samples were diluted 8-fold with complement specimen diluent, and 100 μL of sample was added to each well and incubated at 25° C. for 30 min;
1.4.4 the liquid in the wells was discarded, and the wells were washed 5 times with 300 μL of 1× wash buffer, and incubated at room temperature for 1 min for the first wash;
1.4.5 50 μL of Bb Plus Conjugate was added to each well and incubated at 25° C. for 30 min;
1.4.6 the liquid in the wells was discarded, and the wells were washed 5 times with 300 μL of 1× wash buffer, and incubated at room temperature for 1 min for the first wash;
1.4.7 100 μL of […] (Substrate Solution) was added to each well and incubated at 25° C. for 15 min;
1.4.8 100 μL of stop solution was added to each well, and the absorbance was detected at 450 nm within 30 min.
1.5.1 Inhibition rate of each drug concentration:
The PC group represents 0% inhibition rate, and the NC group represents 100% inhibition rate. […]

[1] = tested on: hemolysis of rabbit erythrocytes; test: Rabbit erythrocyte hemolysis assay to evaluate inhibitory activity on the bypass pathway; assay type: cell-based; settings: Oryctolagus cuniculus, 0.5 h, 48% NHP or 26.4% NHS, 37° C. 30 min, absorbance 415 nm
Text: 2. Rabbit Erythrocyte Hemolysis Assay to Evaluate the Inhibitory Activity of Compounds on the Bypass Pathway
Normal Human Serum, NHS (collected from healthy people), Normal Human Plasma, NHP (Shanghai Yuduo), 96-well ELISA plate (Jet Biofil), Japanese big-eared white rabbit (Wuhan WQJX), Alsever's solution (Procell), centrifuge (Thermo, PICO17), thermostatic shaker (Shanghai Fuma), destaining shaker (Beijing Liuyi), cell counter (Invitrogen, Counter Countess II) (GVB^o, EGTA, MgCl2, NaOH, microplate reader, microplate thermostatic shaker, and pipette are equivalent to those in the experiment 1).
48% NHP: 100% NHP was diluted to 48% with buffer;
26.4% NPS: 100% NHS was diluted to 26.4% with buffer;
rabbit erythrocyte suspension: blood was taken from rabbit ear marginal vein, anticoagulated with Alsever's solution at a ratio of 1:1, stored in portions at 4° C., and could be stored for 4 weeks. Before use, the suspension was centrifuged at 500 g for 5 min to discard the Alsever's solution, washed three times with an equal volume of buffer and centrifuged at 500 g for 5 min, and finally the density was adjusted to 6×10^8 cells/mL with buffer.
In the 96-well ELISA plate, the experimental group was added with 50 μL of 48% NHP or 26.4% NHS and 50 μL of compound solution; the positive control group was added with 50 μL of 48% NHP or 26.4% NHS and 50 μL of buffer containing 0.2% DMSO; the blank control group was added with 50 μL of 48% inactivated NHP or 26.4% inactivated NHS and 0.2% DMSO buffer; the H2O group was added with 100 μL of double-distilled water; incubated at 37° C. for 15 min; 20 μL of rabbit erythrocyte suspension was added to each well and incubated on a shaker at 37° C. for 30 min; centrifuged at 2000 g (3380 rpm) for 5 min, and […] of supernatant was transferred to a new 96-well ELISA plate, and the absorbance was detected at 415 nm.
The PC group represents 100% hemolysis, and the NC group represents 0% hemolysis.
IC50: half-maximal inhibitory concentration. Data were collected to calculate the log value of hemolysis percentage versus compound concentration, and IC50 values were calculated using GraphPad Prism software.

Row | Compound | IC50 (complement factor D) [nM] | IC50 [1] [nM]
1 | NCc1cccc(-c2cc(COc3ccccc3CC(=O)O)cc(N3CCC4(CC3)COC4)c2)c1F [Compound 024, 2-(2-((3′-(aminomethyl)-2′-fluoro-5-(2-oxa-7-azaspiro[3.5]nonan-7-yl)-[1,1′-biphenyl]-3-yl)methoxy)phenyl)acetic acid] | 4 | 27
2 | NCc1cccc(-c2cc(COc3ccccc3CC(=O)O)cc(N3CC4(CCOC4)C3)c2)c1 [Compound 031, 2-(2-((3′-(aminomethyl)-5-(6-oxa-2-azaspiro[3.4]octan-2-yl)-[1,1′-biphenyl]-3-yl)methoxy)phenyl)acetic acid] | 3 | 6
3 | NCc1cccc(-c2cc(COc3ccccc3CC(=O)O)cc(N3CC4CCC(C4)C3)c2)c1 [Compound 006, 2-(2-((3′-(aminomethyl)-5-(3-azabicyclo[3.2.1]octan-3-yl)-′[1,1′-biphenyl]-3-yl)methoxy)phenyl)acetic acid] | 4 | 54
4 | NCc1cccc(-c2cc(COc3ccccc3CC(=O)O)cc(N3CCOC4(CC4)C3)c2)c1 [Compound 016, 2-(2-((3′-(aminomethyl)-5-(4-oxa-7-azaspiro[2.5]octan-7-yl)-[1,1′-biphenyl]-3-yl)methoxy)phenyl)acetic acid] | 26 | 19
5 | NCc1cccc(-c2cc(COc3ccccc3CC(=O)O)cc(N3CCC4(CCOC4)CC3)c2)c1 [Compound 014, 2-(2-((3′-(aminomethyl)-5-(2-oxa-8-azaspiro[4.5]decan-8-yl)-[1,1′-biphenyl]-3-yl)methoxy)phenyl)acetic acid] | 14 | 10
6 | NCc1cccc(-c2cc(COc3cc(F)ccc3CC(=O)O)cc(N3CCC4(CC3)CC4)c2)c1F [Compound 021, 2-(2-((3′-(aminomethyl)-2′-fluoro-5-(6-azaspiro[2.5]octan-6-yl)-[1,1′-biphenyl]-3-yl)methoxy)-4-fluorophenyl)acetic acid] | 11 | 65
7 | NCc1cc(F)cc(-c2cc(COc3ccccc3CC(=O)O)cc(N3CCC4(CC3)CC4)c2)c1 [Compound 008, 2-(2-((3′-(aminomethyl)-5′-fluoro-5-(6-azaspiro[2.5]octan-6-yl)-[1,1′-biphenyl]-3-yl)methoxy)phenyl)acetic acid] | 18 | 196
8 | NCc1cccc(-c2cc(COc3ccc(F)cc3CC(=O)O)cc(N3CCC4(CC3)COC4)c2)c1F [Compound 025, 2-(2-((3′-(aminomethyl)-2′-fluoro-5-(2-oxa-7-azaspiro[3.5]nonan-7-yl)-[1,1′-biphenyl]-3-yl)methoxy)-5-fluorophenyl)acetic acid] | 7 | 12
9 | NCc1cccc(-c2cc(COc3ccccc3CC(=O)O)cc(N3CCC4(CC3)COC4)c2)c1 [Compound 011, 2-(2-((3′-(aminomethyl)-5-(2-oxa-7-azaspiro[3.5]nonan-7-yl)-[1,1′-biphenyl]-3-yl)methoxy)phenyl)acetic acid] | 18 | 13

Continued by falling IC50 (complement factor D), values first:

Row | IC50 (complement factor D) [nM] | Compound | IC50 [1] [nM]
10 | 19 | NCc1cccc(-c2cc(COc3ccccc3CC(=O)O)cc(N3CCCC4(CC4)C3)c2)c1 [Compound 004, 2-(2-((3′-(aminomethyl)-5-(5-azaspiro[2.5]octan-5-yl)-[1,1′-biphenyl]-3-yl)methoxy)phenyl)acetic acid] | 36
11 | 11 | NCc1cccc(-c2cc(COc3ccccc3CC(=O)O)cc(N3CCC4(CC3)CC(O)C4)c2)c1 [Compound 013, 2-(2-((3′-(aminomethyl)-5-(2-hydroxy-7-azaspiro[3.5]nonan-7-yl)-[1,1′-biphenyl]-3-yl)methoxy)phenyl)acetic acid] | 28
12 | 10 | CN1CC2(CCN(c3cc(COc4ccccc4CC(=O)O)cc(-c4cccc(CN)c4)c3)CC2)C1 [Compound 032, 2-(2-((3′-(aminomethyl)-5-(2-methyl-2,7-diazaspiro[3.5]nonan-7-yl)-[1,1′-biphenyl]-3-yl)methoxy)phenyl)acetic acid] | 8
13 | 6 | NCc1cccc(-c2cc(COc3ccccc3CC(=O)O)cc(N3CCC4(CCO4)CC3)c2)c1 [Compound 012, 2-(2-((3′-(aminomethyl)-5-(1-oxa-7-azaspiro[3.5]nonan-7-yl)-[1,1′-biphenyl]-3-yl)methoxy)phenyl)acetic acid] | 4
14 | 4 | NCc1cccc(-c2cc(COc3ccccc3CC(=O)O)cc(N3CCC4(CCCOC4)CC3)c2)c1 [Compound 030, 2-(2-((3′-(aminomethyl)-5-(2-oxa-9-azaspiro[5.5]undecan-9-yl)-[1,1′-biphenyl]-3-yl)methoxy)phenyl)acetic acid] | 22
15 | 3 | NCc1cccc(-c2cc(COc3ccccc3CC(=O)O)cc(N3CCC4(CCC4)C3)c2)c1 [Compound 003, 2-(2-((3′-(aminomethyl)-5-(6-azaspiro[3.4]octan-6-yl)-[1,1′-biphenyl]-3-yl)methoxy)phenyl)acetic acid] | 43
16 | 2 | NCc1cccc(-c2cc(COc3ccccc3CC(=O)O)cc(N3CCC4(CCNCC4)CC3)c2)c1 [Compound 033, 2-(2-((3′-(aminomethyl)-5-(3,9-diazaspiro[5.5]undecan-3-yl)-[1,1′-biphenyl]-3-yl)methoxy)phenyl)acetic acid] | 3
17 | 1 | NCc1cccc(-c2cc(COc3ccccc3CC(=O)O)cc(N3CCC4(CCCC4)C3)c2)c1 [Compound 034] | 11
